# In patent US9809574B2, “Isoindoline or isoquinoline compounds, a process for their preparation and pharmaceutical compositions containing them” (LES LABORATOIRES SERVIER, priority 2013, dated 2017):
# Where a name gives a salt, the structure may show the parent alone.
# Key:
# Bcl-2 protein = Bcl-2 protein (histag-Bcl-2, UniProtKB P10415) (Homo sapiens (Human), UniProt P10415); assay: Inhibition of Bcl-2 by the fluorescence polarisation technique; assay type: binding; conditions: fluorescence polarisation test; incubation for 2 hours; read-out: IC50 (nM) Bcl-2 FP
# Sequence of Bcl-2 protein (P10415 whole entry): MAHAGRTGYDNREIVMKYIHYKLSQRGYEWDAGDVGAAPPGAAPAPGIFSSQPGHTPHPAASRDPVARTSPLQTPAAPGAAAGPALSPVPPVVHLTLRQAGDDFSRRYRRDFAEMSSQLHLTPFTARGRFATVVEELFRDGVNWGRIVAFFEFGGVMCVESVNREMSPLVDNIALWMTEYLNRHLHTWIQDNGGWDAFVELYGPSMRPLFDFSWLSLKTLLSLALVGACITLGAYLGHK
# Excerpt: For partial inhibitors, the percentage fluorescence polarisation inhibition for a given concentration of the test compound is indicated.
# [1] = system: RS4; 11 leukaemia cell line; assay: In vitro cytotoxicity, Microculture Tetrazolium Assay (MTT); assay type: cell-based; conditions: Homo sapiens, 11 cells exposed for 48 hours
# Procedure: The cytotoxicity studies were carried out on the RS4; 11 leukaemia cell line and on H146 small Cell Lung Carcinoma cell line. The cells are distributed onto microplates and exposed to the test compounds for 48 hours. The cell viability is then quantified by a colorimetric assay, the Microculture Tetrazolium Assay (Cancer Res., 1987, 47, 939-942).
Compound,IC50 (Bcl-2 protein),IC50 [1]
"C[C@@H]1Cc2ccccc2CN1C(=O)c1cc2c(cc1-c1cc(C(=O)N(C)c3ccc(O)cc3)c3n1CCCC3)CN(C(=O)N(C)C(C)(C)C)C2 [Example 81, N-tert-Butyl-5-{1-[(4-hydroxyphenyl)(methyl)carbamoyl]-5,6,7,8-tetrahydroindolizin-3-yl}-N-methyl-6-[(3R)-3-methyl-1,2,3,4-tetrahydroisoquinoline-2-carbonyl]-2,3-dihydro-1H-isoindole-2-carboxamide]",21 nM,> 150 nM
"C[C@@H]1Cc2ccccc2CN1C(=O)c1cc2c(cc1-c1cc(C(=O)N(C)c3ccc(O)cc3)c3n1CCCC3)CN(C(=O)N(C)c1ccccc1)C2 [Example 82, 5-{1-[(4-Hydroxyphenyl)(methyl)carbamoyl]-5,6,7,8-tetrahydroindolizin-3-yl}-N-methyl-6-[(3R)-3-methyl-1,2,3,4-tetrahydroisoquinoline-2-carbonyl]-N-phenyl-2,3-dihydro-1H-isoindole-2-carboxamide]",17 nM,> 150 nM
"C[C@@H]1Cc2ccccc2CN1C(=O)c1cc2c(cc1-c1cc(C(=O)N(C)c3ccc(O)cc3)c3n1CCCC3)CN(C(=O)N1CC(c3ccccc3)C1)C2 [Example 83, N-(4-Hydroxyphenyl)-N-methyl-3-{6-[(3R)-3-methyl-1,2,3,4-tetrahydroisoquinoline-2-carbonyl]-2-(3-phenylazetidine-1-carbonyl)-2,3-dihydro-1H-isoindol-5-yl}-5,6,7,8-tetrahydroindolizine-1-carboxamide]",15 nM,122 nM
"Cc1c(C(=O)N(C)c2ccc(O)cc2)cc(-c2cc3c(cc2C(=O)N2Cc4ccccc4C[C@H]2CN2CCOCC2)CN(C(=O)Oc2ccccc2)CC3)n1C [Example 88, Phenyl 6-{4-[(4-hydroxyphenyl)(methyl)carbamoyl]-1,5-dimethyl-1H-pyrrol-2-yl}-7-[(3S)-3-(morpholin-4-ylmethyl)-1,2,3,4-tetrahydroisoquinoline-2-carbonyl]-1,2,3,4-tetrahydroisoquinoline-2-carboxylate hydrochloride]",3.5 nM,3.9 nM
"C[C@H](C(=O)N1CCc2cc(-c3cc(C(=O)N(C)c4ccc(O)cc4)c4n3CCCC4)c(C(=O)N3Cc4ccccc4C[C@H]3C)cc2C1)c1ccccc1 [Example 90, N-(4-Hydroxyphenyl)-N-methyl-3-{7-[(3R)-3-methyl-1,2,3,4-tetrahydroisoquinoline-2-carbonyl]-2-[(2S)-2-phenylpropanoyl]-1,2,3,4-tetrahydroisoquinolin-6-yl}-5,6,7,8-tetrahydroindolizine-1-carboxamide]",6.2 nM,39 nM
"C[C@@H]1Cc2ccccc2CN1C(=O)c1cc2c(cc1-c1cc(C(=O)N(C)c3ccc(O)cc3)c3n1CCCC3)CCN(C(=O)[C@H](C)c1ccccc1)C2 [Example 91, N-(4-Hydroxyphenyl)-N-methyl-3-{7-[(3R)-3-methyl-1,2,3,4-tetrahydroisoquinoline-2-carbonyl]-2-[(2R)-2-phenylpropanoyl]-1,2,3,4-tetrahydroisoquinolin-6-yl}-5,6,7,8-tetrahydroindolizine-1-carboxamide]",7 nM,73 nM
"C[C@@H]1Cc2ccccc2CN1C(=O)c1cc2c(cc1-c1cc(C(=O)N(C)c3ccc(O)cc3)c3n1CCCC3)CN(CC(=O)Nc1ccccc1)C2 [Example 92, N-(4-Hydroxyphenyl)-N-methyl-3-{6-[(3R)-3-methyl-1,2,3,4-tetrahydroisoquinoline-2-carbonyl]-2-[(phenylcarbamoyl)methyl]-2,3-dihydro-1H-isoindol-5-yl}-5,6,7,8-tetrahydroindolizine-1-carboxamide]",20 nM,105 nM
"CCC(C(=O)N1CCc2cc(-c3cc(C(=O)N(C)c4ccc(O)cc4)c4n3CCCC4)c(C(=O)N3Cc4ccccc4C[C@H]3C)cc2C1)c1ccccc1 (stereo partly drawn) [Example 95, N-(4-Hydroxyphenyl)-N-methyl-3-{7-[(3R)-3-methyl-1,2,3,4-tetrahydroisoquinoline-2-carbonyl]-2-(2-phenylbutanoyl)-1,2,3,4-tetrahydroisoquinolin-6-yl}-5,6,7,8-tetrahydroindolizine-1-carboxamide]",14 nM,115 nM
"Cc1ccc(OC(=O)N2CCc3cc(-c4cc(C(=O)N(C)c5ccc(O)cc5)c5n4CCCC5)c(C(=O)N4Cc5ccccc5C[C@H]4CN4CCOCC4)cc3C2)cc1 [Example 98, 4-Methylphenyl 6-{1-[(4-hydroxyphenyl)(methyl)carbamoyl]-5,6,7,8-tetrahydroindolizin-3-yl}-7-[(3S)-3-(morpholin-4-ylmethyl)-1,2,3,4-tetrahydroisoquinoline-2-carbonyl]-1,2,3,4-tetrahydroisoquinoline-2-carboxylate hydrochloride]",3.8 nM,1.8 nM

# The remaining molecules from weak to strong by IC50 (Bcl-2 protein), led by results:
IC50 (Bcl-2 protein),Compound,IC50 [1]
6.1 nM,"C[C@@H]1Cc2ccccc2CN1C(=O)c1cc2c(cc1-c1cc(C(=O)N(C)c3ccc(O)cc3)c3n1CCCC3)CN(C(=O)N(C)Cc1ccccc1)C2 [Example 85, N-Benzyl-5-{1-[(4-hydroxyphenyl)(methyl)carbamoyl]-5,6,7,8-tetrahydroindolizin-3-yl}-N-methyl-6-[(3R)-3-methyl-1,2,3,4-tetrahydroisoquinoline-2-carbonyl]-2,3-dihydro-1H-isoindole-2-carboxamide]",58 nM
5.6 nM,"CN(C(=O)c1cc(-c2cc3c(cc2C(=O)N2Cc4ccccc4C[C@H]2CN2CCOCC2)CN(C(=O)OCc2ccccc2)CC3)n2c1CCCC2)c1ccc(O)cc1 [Example 94, Benzyl 6-{1-[(4-hydroxyphenyl)(methyl)carbamoyl]-5,6,7,8-tetrahydroindolizin-3-yl}-7-[(3S)-3-(morpholin-4-ylmethyl)-1,2,3,4-tetrahydroisoquinoline-2-carbonyl]-1,2,3,4-tetrahydroisoquinoline-2-carboxylate]",19 nM
5.5 nM,"C[C@@H]1Cc2ccccc2CN1C(=O)c1cc2c(cc1-c1cc(C(=O)N(C)c3ccc(O)cc3)c3n1CCCC3)CN(C(=O)COc1ccccc1Cl)C2 [Example 86, 3-{2-[2-(2-Chlorophenoxy)acetyl]-6-[(3R)-3-methyl-1,2,3,4-tetrahydroisoquinoline-2-carbonyl]-2,3-dihydro-1H-isoindol-5-yl}-N-(4-hydroxyphenyl)-N-methyl-5,6,7,8-tetrahydroindolizine-1-carboxamide]",60 nM
5.1 nM,"C[C@@H]1Cc2ccccc2CN1C(=O)c1cc2c(cc1-c1cc(C(=O)N(C)c3ccc(O)cc3)c3n1CCCC3)CN(C(=O)CNc1ccccc1)C2 [Example 87, N-(4-Hydroxyphenyl)-N-methyl-3-{6-[(3R)-3-methyl-1,2,3,4-tetrahydroisoquinoline-2-carbonyl]-2-[2-(phenylamino)acetyl]-2,3-dihydro-1H-isoindol-5-yl}-5,6,7,8-tetrahydroindolizine-1-carboxamide]",43 nM
5.1 nM,"C[C@@H]1Cc2ccccc2CN1C(=O)c1cc2c(cc1-c1cc(C(=O)N(C)c3ccc(O)cc3)c3n1CCCC3)CCN(C(=O)OCc1ccccc1)C2 [Example 93, Benzyl 6-{1-[(4-hydroxyphenyl)(methyl)carbamoyl]-5,6,7,8-tetrahydroindolizin-3-yl}-7-[(3R)-3-methyl-1,2,3,4-tetrahydroisoquinoline-2-carbonyl]-1,2,3,4-tetrahydroisoquinoline-2-carboxylate]",11 nM
4.9 nM,"C[C@@H]1Cc2ccccc2CN1C(=O)c1cc2c(cc1-c1cc(C(=O)N(C)c3ccc(O)cc3)c3n1CCCC3)CCN(C(=O)N1CC(c3ccccc3)C1)C2 [Example 84, N-(4-Hydroxyphenyl)-N-methyl-3-{7-[(3R)-3-methyl-1,2,3,4-tetrahydroisoquinoline-2-carbonyl]-2-(3-phenylazetidine-1-carbonyl)-1,2,3,4-tetrahydroisoquinolin-6-yl}-5,6,7,8-tetrahydroindolizine-1-carboxamide]",33 nM
4.9 nM,"C[C@@H]1Cc2ccccc2CN1C(=O)c1cc2c(cc1-c1cc(C(=O)N(C)c3ccc(O)cc3)c3n1CCCC3)CCN(C(=O)Cc1ccc(N3CCN(C)CC3)cc1)C2 [Example 97, N-(4-Hydroxyphenyl)-N-methyl-3-{7-[(3R)-3-methyl-1,2,3,4-tetrahydroisoquinoline-2-carbonyl]-2-{2-[4-(4-methylpiperazin-1-yl)phenyl]acetyl}-1,2,3,4-tetrahydroisoquinolin-6-yl}-5,6,7,8-tetrahydroindolizine-1-carboxamide]",15 nM
3.9 nM,"C[C@@H]1Cc2ccccc2CN1C(=O)c1cc2c(cc1-c1cc(C(=O)N(C)c3ccc(O)cc3)c3n1CCCC3)CCN(C(=O)Cc1ccc(NCCN3CCOCC3)cc1)C2 [Example 96, N-(4-Hydroxyphenyl)-N-methyl-3-{7-[(3R)-3-methyl-1,2,3,4-tetrahydroisoquinoline-2-carbonyl]-2-[2-(4-{[2-(morpholin-4-yl)ethyl]amino}phenyl)acetyl]-1,2,3,4-tetrahydroisoquinolin-6-yl}-5,6,7,8-tetrahydroindolizine-1-carboxamide]",9.1 nM
3.5 nM,"Cc1c(C(=O)N(C)c2ccc(O)cc2)cc(-c2cc3c(cc2C(=O)N2Cc4ccccc4C[C@H]2CN2CCOCC2)CN(C(=O)Cc2ccccc2)CC3)n1C [Example 89, N-(4-Hydroxyphenyl)-N,1,2-trimethyl-5-{7-[(3S)-3-(morpholin-4-ylmethyl)-1,2,3,4-tetrahydroisoquinoline-2-carbonyl]-2-(2-phenylacetyl)-1,2,3,4-tetrahydroisoquinolin-6-yl}-1H-pyrrole-3-carboxamide]",24 nM
